Test results as given in patent publication US8604218B2, “Cytoskeletal active rho kinase inhibitor compounds, composition and use” (Inspire Pharmaceuticals, Inc., priority 2006, dated 2013).

These molecules were tested against ROCK2 (Homo sapiens (Human), UniProt O75116) (assay: Rho Kinase Inhibition Assay (IMAP fluorescence polarization)). Settings: isolated enzyme, 10 μM ATP, 60 minutes at room temperature.
Type: biochemical
Protocol: Following the preincubation, 10 μM ATP was added to initiate the reaction. After 60 minutes at room temperature, Molecular Devices IMAP™ binding solution was added to bind phosphorylated substrate. After 30 minutes of incubation in the presence of the IMAP™ beads the fluorescence polarization was read and the ratio was reported as mP. IC50 results were calculated using the Prism software from Graphpad.
See Tian et al., Arch. Ophthalmol. […] Ophthalmol. Vis. […] Ophthalmol. […] Cytoskel. […] Ophthalmol. Vis. […] Ophthalmol. Vis.

Sequence of ROCK2 (O75116 11-552): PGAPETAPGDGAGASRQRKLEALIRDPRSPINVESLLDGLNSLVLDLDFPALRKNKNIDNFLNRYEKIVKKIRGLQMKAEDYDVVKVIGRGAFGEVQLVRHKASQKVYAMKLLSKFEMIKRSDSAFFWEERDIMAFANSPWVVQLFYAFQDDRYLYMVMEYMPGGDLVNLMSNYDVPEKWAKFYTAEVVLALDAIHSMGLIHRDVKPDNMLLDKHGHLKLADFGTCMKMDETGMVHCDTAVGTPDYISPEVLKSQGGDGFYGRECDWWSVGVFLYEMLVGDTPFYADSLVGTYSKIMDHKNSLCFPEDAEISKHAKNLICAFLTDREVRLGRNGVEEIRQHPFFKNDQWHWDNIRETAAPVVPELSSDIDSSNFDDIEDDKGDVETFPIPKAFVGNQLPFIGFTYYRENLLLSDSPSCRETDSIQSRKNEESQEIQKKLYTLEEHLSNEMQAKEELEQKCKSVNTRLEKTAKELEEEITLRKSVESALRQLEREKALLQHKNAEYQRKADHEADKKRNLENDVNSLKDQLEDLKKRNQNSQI

| IC50 [nM] | SMILES |
| --- | --- |
| 189 | c1cc2c(cc1CN1CCCC(Nc3ccc4[nH]ncc4c3)C1)OCCO2 (stereo not shown) [Compound 1.053, N-(1-((2,3-dihydrobenzo[b][1,4]dioxin-6-yl)methyl)piperidin-3-yl)-1H-indazol-5-amine] |
| 132 | c1cc2cc(CN3CCCC(Nc4ccc5[nH]ncc5c4)C3)ccc2s1 (stereo not shown) [Compound 1.054, N-(1-(benzo[b]thiophen-5-ylmethyl)piperidin-3-yl)-1H-indazol-5-amine] |
| 472 | NC(=O)c1cccc(CN2CCCC(Nc3ccc4[nH]ncc4c3)C2)c1 (stereo not shown) [Compound 1.055, 3-((3-(1H-indazol-5-ylamino)piperidin-1-yl)methyl)benzamide] |
| 435 | NS(=O)(=O)c1cccc(CN2CCCC(Nc3ccc4[nH]ncc4c3)C2)c1 (stereo not shown) [Compound 1.056, 3-((3-(1H-indazol-5-ylamino)piperidin-1-yl)methyl)benzenesulfonamide] |
| 194 | CC(C)(C)OC(=O)NCc1cccc(CN2CCCC(Nc3ccc4[nH]ncc4c3)C2)c1 (stereo not shown) [Compound 1.057, tert-butyl 3-((3-(1H-indazol-5-ylamino)piperidin-1-yl)methyl)benzylcarbamate] |
| 47.5 | Cc1ccc(CN2CCCC(Nc3ccc4[nH]ncc4c3)C2)cc1OCCO (stereo not shown) [Compound 1.058, 2-(5-((3-(1H-indazol-5-ylamino)piperidin-1-yl)methyl)-2-methylphenoxy)ethanol] |
| 32 | Cc1ccc(CN2CCCC(Nc3ccc4[nH]ncc4c3)C2)cc1O (stereo not shown) [Compound 1.059, 5-((3-(1H-indazol-5-ylamino)piperidin-1-yl)methyl)-2-methylphenol] |
| 87.2 | CCOC(=O)COc1cccc(CN2CCCC(Nc3ccc4[nH]ncc4c3)C2)c1 (stereo not shown) [Compound 1.060, ethyl 2-(3-((3-(1H-indazol-5-ylamino)piperidin-1-yl)methyl)phenoxy)acetate] |
| 282 | NCc1cccc(CN2CCCC(Nc3ccc4[nH]ncc4c3)C2)c1 (stereo not shown) [Compound 1.061, N-(1-(3-(aminomethyl)benzyl)piperidin-3-yl)-1H-indazol-5-amine] |
| 155 | Clc1ccc(CN2CCC(Nc3ccc4[nH]ncc4c3)C2)cc1Cl (stereo not shown) [Compound 1.062, N-(1-(3,4-dichlorobenzyl)pyrrolidin-3-yl)-1H-indazol-5-amine] |
| 223 | FC(F)(F)c1cccc(CN2CCCC(Nc3ccc4[nH]ncc4c3)C2)c1 (stereo not shown) [Compound 1.063, N-(1-(3-(trifluoromethyl)benzyl)piperidin-3-yl)-1H-indazol-5-amine] |
| 165 | FC(F)(F)c1cccc(CN2CCC(Nc3ccc4[nH]ncc4c3)C2)c1 (stereo not shown) [Compound 1.064, N-(1-(3-(trifluoromethyl)benzyl)pyrrolidin-3-yl)-1H-indazol-5-amine] |
| 326 | CCOc1cccc(CN2CCCC(Nc3ccc4[nH]ncc4c3)C2)c1 (stereo not shown) [Compound 1.065, N-(1-(3-ethoxybenzyl)piperidin-3-yl)-1H-indazol-5-amine] |
| 232 | Cc1cccc(CN2CCCC(Nc3ccc4[nH]ncc4c3)C2)c1 (stereo not shown) [Compound 1.066, N-(1-(3-methylbenzyl)piperidin-3-yl)-1H-indazol-5-amine] |
| 1850 | COc1ccccc1CN1CCCC(Nc2ccc3[nH]ncc3c2)C1 (stereo not shown) [Compound 1.067, N-(1-(2-methoxybenzyl)piperidin-3-yl)-1H-indazol-5-amine] |
| 660 | Oc1cc(CN2CCCC(Nc3ccc4[nH]ncc4c3)C2)ccc1I (stereo not shown) [Compound 1.068, 5-((3-(1H-indazol-5-ylamino)piperidin-1-yl)methyl)-2-iodophenol] |
| 6050 | Clc1ccc(Oc2cccc(CN3CCCC(Nc4ccc5[nH]ncc5c4)C3)c2)cc1 (stereo not shown) [Compound 1.069, N-(1-(3-(4-chlorophenoxy)benzyl)piperidin-3-yl)-1H-indazol-5-amine] |

| IC50 [nM] | SMILES |
| --- | --- |
| 6680 | FC(F)(F)c1cccc(Oc2cccc(CN3CCCC(Nc4ccc5[nH]ncc5c4)C3)c2)c1 (stereo not shown) [Compound 1.070, N-(1-(3-(3-(trifluoromethyl)phenoxy)benzyl)piperidin-3-yl)-1H-indazol-5-amine] |
| 5590 | Brc1ccc(Br)c(CN2CCCC(Nc3ccc4[nH]ncc4c3)C2)c1 (stereo not shown) [Compound 1.071, N-(1-(2,5-dibromobenzyl)piperidin-3-yl)-1H-indazol-5-amine] |
| 58.5 | Fc1ccc(CN2CCC[C@H](Nc3ccc4[nH]ncc4c3)C2)cc1F [Compound 1.072, (S)-N-(1-(3,4-difluorobenzyl)piperidin-3-yl)-1H-indazol-5-amine] |
| 111 | Fc1ccc(CN2CCC[C@@H](Nc3ccc4[nH]ncc4c3)C2)cc1F [Compound 1.073, (R)-N-(1-(3,4-difluorobenzyl)piperidin-3-yl)-1H-indazol-5-amine] |
| 71.6 | CSc1ccc(CN2CCC[C@@H](Nc3ccc4[nH]ncc4c3)C2)cc1 [Compound 1.074, (R)-N-(1-(4-(methylthio)benzyl)piperidin-3-yl)-1H-indazol-5-amine] |
| 74.5 | CSc1ccc(CN2CCC[C@H](Nc3ccc4[nH]ncc4c3)C2)cc1 [Compound 1.075, (S)-N-(1-(4-(methylthio)benzyl)piperidin-3-yl)-1H-indazol-5-amine] |
| 111 | C#Cc1ccc(CN2CCC[C@@H](Nc3ccc4[nH]ncc4c3)C2)cc1 [Compound 1.076, (R)-N-(1-(4-ethynylbenzyl)piperidin-3-yl)-1H-indazol-5-amine] |
| 53.1 | C#Cc1ccc(CN2CCC[C@H](Nc3ccc4[nH]ncc4c3)C2)cc1 [Compound 1.077, (S)-N-(1-(4-ethynylbenzyl)piperidin-3-yl)-1H-indazol-5-amine] |
| 63.1 | Cc1ccc(CN2CCC[C@H](Nc3ccc4[nH]ncc4c3)C2)cc1 [Compound 1.078, (S)-N-(1-(4-methylbenzyl)piperidin-3-yl)-1H-indazol-5-amine] |
| 102 | COc1ccc(CN2CCC[C@H](Nc3ccc4[nH]ncc4c3)C2)cc1 [Compound 1.079, (S)-N-(1-(4-methoxybenzyl)piperidin-3-yl)-1H-indazol-5-amine] |
| 162 | Clc1ccc(CN2CCC[C@H](Nc3ccc4[nH]ncc4c3)C2)cc1Cl [Compound 1.080, (S)-N-(1-(3,4-dichlorobenzyl)piperidin-3-yl)-1H-indazol-5-amine] |
| 30.1 | Clc1ccc(CN2CCC[C@H](Nc3ccc4[nH]ncc4c3)C2)cc1 [Compound 1.081, (S)-N-(1-(4-chlorobenzyl)piperidin-3-yl)-1H-indazol-5-amine] |
| 30.4 | c1cc2ccc(CN3CCCC(Nc4ccc5[nH]ncc5c4)C3)cc2[nH]1 (stereo not shown) [Compound 1.082, N-(1-((1H-indol-6-yl)methyl)piperidin-3-yl)-1H-indazol-5-amine] |
| 7310 | C#Cc1ccc(CN2CCCC(Nc3ccc4[nH]ncc4c3)C2)cc1O (stereo not shown) [Compound 1.083, 5-((3-(1H-indazol-5-ylamino)piperidin-1-yl)methyl)-2-ethynylphenol] |
| 274 | OCCCOc1cccc(CN2CCCC(Nc3ccc4[nH]ncc4c3)C2)c1 (stereo not shown) [Compound 1.084, 3-(3-((3-(1H-indazol-5-ylamino)piperidin-1-yl)methyl)phenoxy)propan-1-ol] |
| 1680 | NCCOc1cccc(CN2CCCC(Nc3ccc4[nH]ncc4c3)C2)c1 (stereo not shown) [Compound 1.085, N-(1-(3-(2-aminoethoxy)benzyl)piperidin-3-yl)-1H-indazol-5-amine] |
| 310 | O=C(O)COc1cccc(CN2CCCC(Nc3ccc4[nH]ncc4c3)C2)c1 (stereo not shown) [Compound 1.086, 2-(3-((3-(1H-indazol-5-ylamino)piperidin-1-yl)methyl)phenoxy)acetic acid] |
